Laboratory results published in PMC9976898 (2022).

System: F7-40 (DNA, aptamer) CTTACGACCACCATGGGAATCGGGTGGCTTGGAGGTGCGT
Assay: ITC
Details: 20 mM NaCl, 0.5 mM MgCl2; 10 mM Tris-HCl pH 7.4, 1% methanol, 23 °C

## C=C[C@H]1CN2CC[C@H]1C[C@H]2[C@H](O)c1ccnc2ccc(OC)cc12
  KD: 62.1 ± 4.9 µM
